{
  "source": "patent US20060127432A1",
  "about": "“Surface treatment for wood and wood products” (priority 2002, published 2006)",
  "key": {"[1]": {"test": "Degradation on exposure to temperature and UV light", "format": "physicochemical", "text": "(§1) Until this invention, adequately protecting timber against termite attack required a treatment which provided significant penetration of the sapwood. This was the case due to the fact that other available active ingredients degraded very quickly when exposed to increased temperature and Ultra Violet (UV) light. The penetration was required to protect the active ingredient (“active”) from the degradation. The most common used active in the 1990's which penetrated the timber was Permethrin. […] Thus, when using Permethrin, it was required to penetrate into the timber otherwise the product would degrade and not protect the timber. […] This problem was so severe that it made the use of Deltamethin unviable.\n(§2) This increased stability together with the repellent effects of Bifenthrin combined to allow only a superficial treating of the timber where the need for significant penetration is not required."}, "[2]": {"tested_on": "termites", "test": "Simulated house frames exposed to 120,000 termites", "format": "in vivo", "conditions": "superficial treatment, ends not treated; six months of exposure, 120,000 termites", "text": "The ends of the samples were not treated. Simulated frames were exposed to 120,000 termites."}, "[3]": {"tested_on": "Coptotermes acinaciformis", "test": "Timber protection using standard practice in the timber industry", "format": "in vivo", "text": "(§3) The rates are 5 and 20 g/m3 respectively."}, "[4]": {"tested_on": "Mastotermes darwiniensis", "test": "Timber protection using standard practice in the timber industry", "format": "in vivo", "text": "as §3"}, "[5]": {"test": "Bonding to timber", "format": "physicochemical", "conditions": "compared with Permethrin", "text": "(§4) These two attributes of bonding & water insolubility, together with the abovementioned stability when exposed to temperature and UV result in the chemical staying on the timber when exposed to rain, sunlight, temperature or handling. No other chemicals used in the past have such characteristics which would allow a mere superficial treatment."}, "[6]": {"test": "Solubility in water", "format": "physicochemical", "text": "as §4"}, "[7]": {"tested_on": "Coptotermes acinaciformis", "test": "Field drum test (AWPA protocols), treated radiata pine exposed to termites", "format": "in vivo", "parameters": "key to Mean rating: 1: Sound; 2: Superficial attack-grazing; Penetration - >3 mm in depth; 4: Attack Slight −10-25% mass loss; Attack Moderate 25-50% mass loss; 6: Attack Severe 50-70% mass loss; Attack Destroyed 75-100% mass loss", "conditions": "for Mean rating / Success (Pass or Fail) / Pass or Fail: radiata pine, field", "procedure": "(§5) The rates required to achieve protection are 4 and 23 g/m3 applied on the surface of 35×90 mm radiata pine for Coptotermes acinaciformis and Mastotermes darwiniensis respectively. These studies were conducted using the drum test described by the AWPA protocols.\nAdditives can be incorporated during the application of bifenthrin, for example colors, fire retardants, water repellents and resins.\nA modification of superficial treatments is the partial introduction of bifenthrin into the wood. The result of this is an envelope around the cross section of the timber board or wood product or just a partial penetration."}, "[8]": {"tested_on": "Mastotermes darwiniensis", "test": "Field drum test (AWPA protocols), treated radiata pine exposed to termites", "format": "in vivo", "parameters": "Mean score: scale not given here", "conditions": "for Mean score / Pass or Fail: radiata pine, field", "procedure": "as §5"}, "[9]": {"tested_on": "workers who handled the treated timber", "test": "OH&S testing, handling of treated timber", "format": "in vivo", "text": "as §1, §2"}, "[10]": {"conditions": "4 g/m^3 + water repellents, superficial treatment"}, "[11]": {"conditions": "8 g/m^3 + water repellents, superficial treatment"}, "[12]": {"conditions": "15 g/m^3 + water repellents, superficial treatment"}, "[13]": {"conditions": "23 g/m^3 + water repellents, superficial treatment"}, "[14]": {"conditions": "Partial penetration more than 3 mm, 6-12 g/m^3"}, "[15]": {"conditions": "Partial penetration more than 3 mm, 13-20 g/m^3"}, "[16]": {"conditions": "applied on the surface of 35×90 mm radiata pine (dipping or spraying)"}, "[17]": {"conditions": "15 g/m^3, superficial treatment"}, "[18]": {"conditions": "23 g/m^3, superficial treatment"}, "[19]": {"conditions": "38 g/m^3, superficial treatment"}},
  "note": "Marks after values point to notes of the source that are not given here.",
  "data": [
    {"molecule": "Cc1c(COC(=O)[C@@H]2[C@H](/C=C(\\Cl)C(F)(F)F)C2(C)C)cccc1-c1ccccc1", "note": "(racemic) [Bifenthrin]", "values": [
      {"measurement": "Degradation through exposure to UV or heat", "setting": "[1]; superficially treated timber", "result": "significant penetration was not required to protect the active against degradation"},
      {"measurement": "Attack of simulated frames", "setting": "[2]", "result": "the treated frames were not"},
      {"measurement": "Rate required to protect timber", "setting": "[3]", "result": 5, "unit": "g/m3"},
      {"measurement": "Rate required to protect timber", "setting": "[4]", "result": 20, "unit": "g/m3"},
      {"measurement": "Bonding co-efficient", "setting": "[5]", "result": "significantly greater than that of Permethrin"},
      {"measurement": "Solubility in water", "setting": "[6]", "result": "virtually insoluble in water"},
      {"measurement": "Mean rating", "setting": "[7]; [10]", "result": 1.2},
      {"measurement": "Success (Pass or Fail)", "setting": "[7]; [10]", "result": "Pass"},
      {"measurement": "Mean rating", "setting": "[7]; [11]", "result": 1.3},
      {"measurement": "Success (Pass or Fail)", "setting": "[7]; [11]", "result": "Pass"},
      {"measurement": "Mean rating", "setting": "[7]; [12]", "result": "1.2^b"},
      {"measurement": "Success (Pass or Fail)", "setting": "[7]; [12]", "result": "Pass"},
      {"measurement": "Mean rating", "setting": "[7]; [13]", "result": 1.2},
      {"measurement": "Success (Pass or Fail)", "setting": "[7]; [13]", "result": "Pass"},
      {"measurement": "Mean rating", "setting": "[7]; [14]", "result": 1.0},
      {"measurement": "Success (Pass or Fail)", "setting": "[7]; [14]", "result": "Pass"},
      {"measurement": "Mean rating", "setting": "[7]; [15]", "result": 1.0},
      {"measurement": "Success (Pass or Fail)", "setting": "[7]; [15]", "result": "Pass"},
      {"measurement": "Repellent effect with added water repellents", "setting": "[7]; addition of water repellents", "result": "did not mask the repellent effect"},
      {"measurement": "Rate required to achieve protection", "setting": "[7]; [16]", "result": 4, "unit": "g/m3"},
      {"measurement": "Mean score", "setting": "[8]; 4 g/m^3, superficial treatment", "result": 3.3},
      {"measurement": "Pass or Fail", "setting": "[8]; 4 g/m^3, superficial treatment", "result": "Fail"},
      {"measurement": "Mean score", "setting": "[8]; 8 g/m^3, superficial treatment", "result": 2.2},
      {"measurement": "Pass or Fail", "setting": "[8]; 8 g/m^3, superficial treatment", "result": "Fail"},
      {"measurement": "Mean score", "setting": "[8]; [17]", "result": 2.0},
      {"measurement": "Pass or Fail", "setting": "[8]; [17]", "result": "Fail"},
      {"measurement": "Mean score", "setting": "[8]; [18]", "result": 1.7},
      {"measurement": "Pass or Fail", "setting": "[8]; [18]", "result": "Pass"},
      {"measurement": "Mean score", "setting": "[8]; [19]", "result": 1.0},
      {"measurement": "Pass or Fail", "setting": "[8]; [19]", "result": "Pass"},
      {"measurement": "Rate required to achieve protection", "setting": "[8]; [16]", "result": 23, "unit": "g/m3"},
      {"measurement": "Skin irritation / parasthesia on exposure to treated timber", "setting": "[9]", "result": "does not produce any skin irritation"}
    ]},
    {"molecule": "CC1(C)[C@H](C(=O)O[C@H](C#N)c2cccc(Oc3ccccc3)c2)[C@@H]1C=C(Br)Br", "note": "[Deltamethrin]", "values": [
      {"measurement": "Resistance to UV light", "setting": "[1]", "result": "degrade rapidly when exposed to UV light"},
      {"measurement": "Skin irritation / parasthesia on exposure to treated timber", "setting": "[9]", "result": "all workers who handled the treated timber complained of a parasthesia or skin irritation"}
    ]},
    {"molecule": "CC1(C)C(C=C(Cl)Cl)C1C(=O)OCc1cccc(Oc2ccccc2)c1", "note": "(stereo not drawn) [permethrin, Permethrin]", "values": [
      {"measurement": "Resistance to UV light", "setting": "[1]", "result": "very low resistance to UV light"},
      {"measurement": "Degradation on exposure to temperature", "setting": "[1]; heat", "result": "degrade when exposed to temperatures above 25 degrees centigrade"},
      {"measurement": "Mean rating", "setting": "[7]; 0.007% m/m OD permethrin", "result": 2},
      {"measurement": "Pass or Fail", "setting": "[7]; 0.007% m/m OD permethrin", "result": "Fail"},
      {"measurement": "Mean rating", "setting": "[7]; 0.013% m/m OD permethrin", "result": 1.8},
      {"measurement": "Pass or Fail", "setting": "[7]; 0.013% m/m OD permethrin", "result": "Fail"},
      {"measurement": "Mean rating", "setting": "[7]; 0.02% m/m OD permethrin", "result": 1.3},
      {"measurement": "Pass or Fail", "setting": "[7]; 0.02% m/m OD permethrin", "result": "Pass"},
      {"measurement": "Mean score", "setting": "[8]; 0.02% m/m permethrin (LOSP)", "result": 1.8},
      {"measurement": "Pass or Fail", "setting": "[8]; 0.02% m/m permethrin (LOSP)", "result": "Pass"},
      {"measurement": "Mean score", "setting": "[8]; .007% m/m permethrin (LOSP)", "result": 2.2},
      {"measurement": "Pass or Fail", "setting": "[8]; .007% m/m permethrin (LOSP)", "result": "Fail"},
      {"measurement": "Mean score", "setting": "[8]; .013% m/m permethrin (LOSP)", "result": 2.2},
      {"measurement": "Pass or Fail", "setting": "[8]; .013% m/m permethrin (LOSP)", "result": "Fail"}
    ]}
  ]
}
